Data from the C3SDB collision cross section collection.
Several values for one entry are separate records, joined by “and”; a condition that tells them apart may be missing. Equal entries are not always repeated. Structures can show the parent of a compound that is named as a salt.

Conditions: instrument: DT, single field, calibrated with Agilent tune mix (Agilent)

Row | SMILES | collision cross section (N2) ([M+H]+) | collision cross section (N2) ([M-H]-) [Å²] | other results
1 | Nc1ccn([C@@H]2O[C@H](COP(=O)(O)OP(=O)(O)O)[C@@H](O)[C@H]2O)c(=O)n1 [CDP] | 175.1 Å² | – | –
2 | CCCCCCCCCC(=O)O [Capric acid] | – | 146.87 | –
3 | O=C(/C=C/c1ccc(O)c(O)c1)O[C@@H]1C[C@](O)(C(=O)O)C[C@@H](O)[C@H]1O [Chlorogenic acid] | 185.1 Å² | – | collision cross section (N2) ([M+Na-2H]-): 173.79 Å²
4 | C[C@H](CCC(=O)O)[C@H]1CC[C@H]2[C@@H]3[C@H](O)C[C@@H]4C[C@H](O)CC[C@]4(C)[C@H]3C[C@H](O)[C@]12C [Cholic acid] | – | 200.72 | collision cross section (N2) ([M+Na]+): 197.3 Å²
5 | CC(C)(COP(=O)(O)OP(=O)(O)OC[C@H]1O[C@@H](n2cnc3c(N)ncnc32)[C@H](O)[C@@H]1OP(=O)(O)O)[C@@H](O)C(=O)NCCC(=O)NCCS [Coenzyme A] | 240.4 Å² | 241.54 | –
6 | C[C@]12CCC(=O)C=C1CC[C@@H]1[C@@H]2CC[C@@]2(C)[C@H]1CC[C@]2(O)C(=O)CO [Cortexolone] | 187.4 Å² | – | –
7 | C[C@]12C[C@H](O)[C@H]3[C@@H](CCC4=CC(=O)CC[C@@]43C)[C@@H]1CC[C@@H]2C(=O)CO [Corticosterone] | 186.8 Å² | 186.46 | –
8 | COc1cc(/C=C/C(=O)CC(=O)/C=C/c2ccc(O)c(OC)c2)ccc1O [Curcumin] | 201.6 Å² | – | collision cross section (N2) ([M+Na-2H]-): 178.82 Å²
9 | N[C@@H](CSS(=O)(=O)O)C(=O)O [Cysteine-S-sulfate] | 144.2 Å² | – | collision cross section (N2) ([M+Na-2H]-): 133.29 Å²
10 | Nc1ccn([C@@H]2O[C@H](COP(=O)(O)OP(=O)(O)O)[C@@H](O)[C@H]2O)c(=O)n1 [Cytidine 5'-diphosphate] | – | 171.31 | –
11 | N[C@H](CC(=O)O)C(=O)O [D-Aspartic acid] | – | 116.91 | –
12 | O=C(CO)[C@@H](O)[C@H](O)[C@H](O)COP(=O)(O)O [D-Fructose-6-phosphate] | – | – | collision cross section (N2) ([M+Na]+): 154.2 Å²
13 | OC1OC[C@@H](O)[C@@H](O)[C@H]1O (stereo partly drawn) [D-Ribose] | – | – | collision cross section (N2) ([M+Na]+): 135.3 Å²
14 | OC[C@@H](O)[C@@H](O)[C@H](O)[C@@H](O)CO [D-Sorbitol] | – | 129.64 | collision cross section (N2) ([M+Na]+): 142.5 Å²
15 | O=C(O)[C@H]1OC(O)[C@H](O)[C@@H](O)[C@H]1O (stereo partly drawn) [D-galacturonic acid] | – | 128.3 | collision cross section (N2) ([M+Na]+): 143.7 Å²
16 | O=C([O-])[C@H](O)[C@@H](O)[C@H](O)[C@H](O)CO [D-gluconate] | – | – | collision cross section (N2) ([M+Na]+): 145.8 Å²
17 | CCCCCCCCCC(=O)SCCNC(=O)CCNC(=O)[C@H](O)C(C)(C)COP(=O)(O)OP(=O)(O)OC[C@H]1O[C@@H](n2cnc3c(N)ncnc32)[C@H](O)[C@@H]1OP(=O)(O)O [Decanoyl-CoA] | 277 Å² | 276 | –
18 | Nc1nc(=O)c2ncn([C@H]3C[C@H](O)[C@@H](CO)O3)c2[nH]1 [Deoxyguanosine] | – | 156.76 | collision cross section (N2) ([M+Na]+): 171.7 Å²
19 | Cc1cn([C@H]2C[C@H](O)[C@@H](COP(=O)(O)OP(=O)(O)O)O2)c(=O)[nH]c1=O [Deoxythymidine 5'-diphosphate] | – | 172.11 | collision cross section (N2) ([M+Na]+): 177.6 Å²
20 | O=c1ccn([C@H]2C[C@H](O)[C@@H](COP(=O)(O)O)O2)c(=O)[nH]1 [Deoxyuridine monophosphate] | – | 156 | collision cross section (N2) ([M+Na]+): 167.5 Å²
21 | C[C@@H]1NC(=O)N[C@@H]1CCCCCC(=O)O [Dethiobiotin] | 144.1 Å² | – | collision cross section (N2) ([M+2Na-3H]-): 162.06 Å²

Row | SMILES | collision cross section (N2) ([M+H]+) | collision cross section (N2) ([M-H]-) [Å²] | other results
22 | NC(CCCC(N)C(=O)O)C(=O)O (centres undefined) [Diaminopimelic acid] | 140.8 Å² | 134.28 | –
23 | CC1CNC(=O)NC1=O (centres undefined) [Dihydrothymine] | 131.2 Å² | – | –
24 | O=C(CO)COP(=O)(O)O [Dihydroxyacetone phosphate] | – | – | collision cross section (N2) ([M+Na]+): 146.7 Å²
25 | CCCCCCCCCCCC(=O)O [Dodecanoic acid] | – | 152.58 | –
26 | O=C(O)CN(CCN(CC(=O)O)CC(=O)O)CC(=O)O [EDTA] | 159.6 Å² | 151.17 | –
27 | C=C1CC[C@H](O)C/C1=C/C=C1\CCC[C@]2(C)[C@@H]([C@H](C)/C=C/[C@H](C)C(C)C)CC[C@@H]12 [Ergocalciferol] | 202.4 Å² and 203.2 Å² | – | –
28 | C[C@]12CC[C@@H]3c4ccc(O[C@@H]5O[C@H](C(=O)O)[C@@H](O)[C@H](O)[C@H]5O)cc4CC[C@H]3[C@@H]1CCC2=O [Estrone-3-glucuronide] | – | 215.74 | –
29 | CCO[C@@H]1O[C@H](C(=O)O)[C@@H](O)[C@H](O)[C@H]1O [Ethyl glucuronide] | – | 143.97 | –
30 | CC(C)=CCC/C(C)=C/CC/C(C)=C/COP(=O)(O)OP(=O)(O)O [Farnesyl pyrophosphate] | – | 183.85 | –
31 | Cc1cc2nc3c(=O)[nH]c(=O)nc-3n(C[C@H](O)[C@H](O)[C@H](O)COP(=O)(O)O)c2cc1C [Flavin mononucleotide] | 199.1 Å² | 194.92 | –
32 | O=P(O)(O)OC[C@H]1O[C@@](O)(COP(=O)(O)O)[C@@H](O)[C@@H]1O [Fructose 1,6-bisphosphate] | – | – | collision cross section (N2) ([M+Na]+): 168.2 Å²
33 | CCCCC/C=C\C/C=C\C/C=C\CCCCC(=O)O [Gamma-Linolenic acid] | – | 172.84 | –
34 | O=P(O)(O)OC[C@H]1OC(O)[C@H](O)[C@@H](O)[C@@H]1O (some centres undefined) [Glucose 6-phosphate] | – | – | collision cross section (N2) ([M+Na]+): 158.1 Å²
35 | O=P(O)(O)OCC(O)CO (centres undefined) [Glycerol 3-phosphate] | – | 124.86 | –
36 | C[C@H](CCC(=O)NCC(=O)O)[C@H]1CC[C@H]2[C@@H]3[C@H](O)C[C@@H]4C[C@H](O)CC[C@]4(C)[C@H]3C[C@H](O)[C@]12C [Glycocholic acid] | – | 200.58 | collision cross section (N2) ([M+Na]+): 202 Å²
37 | C[C@H](CCC(=O)NCC(=O)O)[C@H]1CC[C@H]2[C@@H]3CC[C@@H]4C[C@H](O)CC[C@]4(C)[C@H]3CC[C@]12C [Glycolithocholic acid] | 200.9 Å² | – | collision cross section (N2) ([M+Na-2H]-): 205.49 Å²
38 | COc1ccc2c(c1)[nH]c1c(C)nccc12 [Harmine] | 146 Å² | 145.28 | –
39 | O=C(O)CNC(=O)c1ccccc1 [Hippuric acid] | – | 139.72 | –
40 | COc1cc(CC(=O)O)ccc1O [Homovanillic acid] | – | 134.15 | –
41 | C[C@]12CCC(=O)C=C1CC[C@@H]1[C@@H]2[C@@H](O)C[C@@]2(C)[C@H]1CC[C@]2(O)C(=O)CO [Hydrocortisone (Cortisol)] | 189.1 Å² | – | –
42 | O=C(O)C(O)Cc1ccc(O)cc1 (centres undefined) [Hydroxyphenyllactic acid] | – | 139.4 | –

Row | SMILES | collision cross section (N2) ([M+H]+) | collision cross section (N2) ([M-H]-) [Å²] | other results
43 | O=C(O)Cc1cnc[nH]1 [Imidazoleacetic acid] | 123.1 Å² | – | –
44 | O=C(O)c1c[nH]c2ccccc12 [Indole-3-carboxylic acid] | 132.4 Å² | 124.5 | –
45 | c1ccc2[nH]ccc2c1 [Indole] | 121 Å² | 117.08 | –
46 | O=C(O)Cc1c[nH]c2ccccc12 [Indoleacetic acid] | 136.2 Å² | – | –
47 | O=C(O)C(O)Cc1c[nH]c2ccccc12 (centres undefined) [Indolelactic acid] | 143.8 Å² | 146.51 | –
48 | O=S(=O)(O)Oc1c[nH]c2ccccc12 [Indoxyl sulfate] | – | 140.6 | –
49 | O=c1nc[nH]c2c1ncn2[C@@H]1O[C@H](COP(=O)(O)OP(=O)(O)O)[C@@H](O)[C@H]1O [Inosine diphosphate] | 185.6 Å² | 176.13 | –
50 | O=c1nc[nH]c2c1ncn2[C@@H]1O[C@H](COP(=O)(O)OP(=O)(O)OP(=O)(O)O)[C@@H](O)[C@H]1O [Inosine triphosphate] | – | 187.3 | –
51 | CC(C)C(=O)SCCNC(=O)CCNC(=O)[C@H](O)C(C)(C)COP(=O)(O)OP(=O)(O)OC[C@H]1O[C@@H](n2cnc3c(N)ncnc32)[C@H](O)[C@@H]1OP(=O)(O)O [Isobutyryl-CoA] | 252 Å² | 254.31 | –
52 | CC(C)C(=O)NCC(=O)O [Isobutyrylglycine] | – | 132.07 | –
53 | CC(C)CCC(=O)O [Isocaproic acid] | – | 127.48 | –
54 | CC(C)CC(=O)NCC(=O)O [Isovalerylglycine] | 155.1 Å² | 138.14 | –
55 | O=C(O)c1cc(=O)c2ccccc2[nH]1 [Kynurenic acid] | 137 Å² | – | collision cross section (N2) ([M+Na-2H]-): 149.51 Å²
56 | O=C1O[C@H]([C@@H](O)CO)C(O)=C1O [L-Ascorbic acid] | 138.6 Å² | – | –
57 | C[N+](C)(C)C[C@H](O)CC(=O)[O-] [L-Carnitine] | 133.1 Å² | – | –
58 | N[C@@H](CS(=O)(=O)O)C(=O)O [L-Cysteic acid] | – | 120.55 | –
59 | OC[C@H](O)[C@@H](O)[C@H](O)[C@@H](O)CO [L-Iditol] | – | 129.61 | collision cross section (N2) ([M+Na]+): 143 Å²
60 | CCCCCCCCCCCCCCCC(=O)O[C@H](CC(=O)[O-])C[N+](C)(C)C [L-Palmitoylcarnitine] | 214 Å² | 204.49 | –
61 | CC(C)C[C@H](N)C(=O)N1CCC[C@H]1C(=O)O [L-leucyl-L-proline] | – | – | collision cross section (N2) ([M+H-H2O]+): 149.5 Å²
